The test system of one experiment is hypertensive SHR rats. Briefly: Arterial blood pressure in hypertensive SHR rats after IP MMP-2 inhibitor. Format: in vivo, rat. The settings on record: 5 mg IP.
Experiment [1] deals with Male 10-week-old Lewis/ssncr rats. Put plainly: Blood pressure measurements in rats after intravenous peptide injection. Format: in vivo, rat. As for the experimental part:
Blood pressure measurements. Male 10-week-old Lewis/ssncr rats (SAIC, Frederic, Md.) were anesthetized with 3% halothane, intubated, and maintained with 1% halothane in 70% nitrous oxide and 30% oxygen (VMS Anesthesia Machine, Matrx, Medical Inc., Orchard Park, N.Y.) at 82 strokes/minute. Rectal temperature was monitored through the experiment. A PE50 catheter was placed on the right femoral artery and arterial blood pressure was recorded through a P23XL transducer (Grass Instruments, Quincy, Mass.). Peptides were injected into the right femoral vein through another catheter. To confirm that changes in blood pressure were not an artifact of the anesthesia, the experiments were repeated in conscious animals. After catheters were placed under anesthesia, the animals were allowed to recover for 24-48 hours before taking blood pressure measurements. All procedures were performed under a protocol approved by the National Institutes of Health.

Experiment [2] addresses T1, AM receptor in Rat2 cells (Rattus norvegicus, UniProt Q63118).
T1 construct: Rat2 is a fibroblast cell line that contains a well characterized AM receptor; host or cells: Rat2 rat fibroblast cell line
Briefly: Measurement of cAMP response in Rat2 cells (radioimmunoassay). Particulars: for intracellular elevation of cAMP: peptides applied 5 minutes, versus PBS control. Format: cell-based. Here is the method: Measurement of cAMP response. The rat fibroblast cell line Rat2 was obtained from the American Tissue Culture Collection (Manassas, Va.) and kept in RPMI-1640 medium supplemented with 10% fetal calf serum (Invitrogen). Accumulation of intracellular cAMP was measured as described (Pío et al., J. Biol. Chem. 276:12292-12300, 2001). Cells were seeded in 24-well plates at 2×10^4 cells/well and incubated at 37° C. in 5% CO2 until they reached 80% confluency. Before the assay, cells were incubated for 15 minutes in TIS medium (RPMI-1640 plus 10 μg/ml transferrin, 10 μg/ml insulin, and 50 nM sodium selenite) containing 1% bovine serum albumin, 1 mg/ml bacitracin, and 100 μM isobutylmethylxanthine. Peptides were applied in the same medium for 5 minutes at the indicated concentrations in a volume of 250 μl. The reaction was terminated by adding an equal volume of ice-cold ethanol. cAMP contents were measured using the Biotrac cAMP radioimmunoassay (Amersham).
To determine if AM peptide fragments elicit their hypotensive and hypertensive effects via the AM receptor, their cAMP response in fibroblasts was examined.

The next experiment relates to blood pressure. Particulars: Kitamura et al. 2001; cited from earlier work.
A further experiment has as its system anesthetized rats. The settings on record: Watanabe et al. 1996; cited from earlier work.
The target in a further experiment is T2, Human recombinant MMP-9 (Homo sapiens, UniProt P14780).
T2 construct: made in house
T2 sequence (P14780 94-707): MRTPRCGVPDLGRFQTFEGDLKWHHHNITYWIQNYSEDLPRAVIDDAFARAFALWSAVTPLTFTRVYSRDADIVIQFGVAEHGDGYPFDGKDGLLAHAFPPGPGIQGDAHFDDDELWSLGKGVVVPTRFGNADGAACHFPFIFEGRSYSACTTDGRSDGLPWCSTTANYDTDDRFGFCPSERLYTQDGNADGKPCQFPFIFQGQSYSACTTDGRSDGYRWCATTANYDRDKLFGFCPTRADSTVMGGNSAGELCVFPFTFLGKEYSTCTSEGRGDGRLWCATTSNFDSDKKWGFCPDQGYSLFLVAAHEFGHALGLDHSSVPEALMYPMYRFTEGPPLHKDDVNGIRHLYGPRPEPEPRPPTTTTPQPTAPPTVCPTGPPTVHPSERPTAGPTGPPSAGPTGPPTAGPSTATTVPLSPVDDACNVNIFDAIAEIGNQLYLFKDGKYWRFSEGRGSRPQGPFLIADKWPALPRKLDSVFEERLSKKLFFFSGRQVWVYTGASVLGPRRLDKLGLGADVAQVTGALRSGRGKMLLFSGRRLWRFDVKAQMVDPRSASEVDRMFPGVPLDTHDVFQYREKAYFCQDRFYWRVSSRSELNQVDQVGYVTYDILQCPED
Put plainly: Digestion reactions with MMP-9 (gel). Particulars: low salt collagenase buffer. It is filed as biochemical. Here is the method:
(§1) Digestion reactions. Synthetic AM (240 μg/reaction) was exposed to 11.5 μg MMP-2 or MMP-9 in low salt collagenase buffer (50 mM Tris, pH 7.5, 50 mM NaCl, 0.02% Brig) for different periods of time in the presence or absence of 6 mg factor H. These amounts correspond to an approximate molar ratio of 1:250:250 (enzyme:AM:factor H). The reaction was stopped with EDTA. Digestion reactions were run in 16% Tricine gels (Invitrogen, Carlsbad, Calif.) under reducing conditions and stained with Gel Code Blue Stain Reagent (Pierce, Rockford, Ill.).

For a further experiment, the target named is T3, Human recombinant MMP-2 (Homo sapiens, UniProt P08253).
T3 construct: made in house
T3 sequence (P08253 110-660): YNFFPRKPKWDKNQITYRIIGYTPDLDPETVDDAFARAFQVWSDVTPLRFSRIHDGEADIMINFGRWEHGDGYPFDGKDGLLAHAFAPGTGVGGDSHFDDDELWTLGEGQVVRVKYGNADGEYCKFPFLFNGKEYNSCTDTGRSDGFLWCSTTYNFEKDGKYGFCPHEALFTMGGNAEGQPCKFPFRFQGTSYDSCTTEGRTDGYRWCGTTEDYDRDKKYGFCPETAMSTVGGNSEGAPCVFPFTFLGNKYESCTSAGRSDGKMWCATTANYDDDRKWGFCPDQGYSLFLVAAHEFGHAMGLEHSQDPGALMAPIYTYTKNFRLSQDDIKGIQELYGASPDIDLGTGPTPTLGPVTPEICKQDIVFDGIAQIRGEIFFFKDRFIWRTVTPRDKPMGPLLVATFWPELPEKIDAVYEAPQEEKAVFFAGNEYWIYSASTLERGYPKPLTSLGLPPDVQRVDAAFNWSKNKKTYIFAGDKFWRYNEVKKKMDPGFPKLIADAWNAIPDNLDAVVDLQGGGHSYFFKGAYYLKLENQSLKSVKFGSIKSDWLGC
Put plainly: Digestion reactions with MMP-2 (gel, HPLC). It is filed as biochemical. The settings on record: low salt collagenase buffer, absence of factor H. As for the experimental part:
as §1
High performance liquid chromatography (HPLC). Digestion reactions were also loaded into an analytical reverse phase R2H 5×100 mm HPLC column (Poros, Applied Biosystems, Foster City, Calif.) in a 10-60% acetonitrile gradient over 10 minutes and the protein peaks eluted from the column were detected with a wavelength of 230 nm.

Where [3] appears, read: anesthetized rats, injection into femoral vein.

Bridges are numbered along the chain shown (N, C = ends). Where no end group is shown, it is not given here.

T1 sequence (Q63118 23-464 limits assumed): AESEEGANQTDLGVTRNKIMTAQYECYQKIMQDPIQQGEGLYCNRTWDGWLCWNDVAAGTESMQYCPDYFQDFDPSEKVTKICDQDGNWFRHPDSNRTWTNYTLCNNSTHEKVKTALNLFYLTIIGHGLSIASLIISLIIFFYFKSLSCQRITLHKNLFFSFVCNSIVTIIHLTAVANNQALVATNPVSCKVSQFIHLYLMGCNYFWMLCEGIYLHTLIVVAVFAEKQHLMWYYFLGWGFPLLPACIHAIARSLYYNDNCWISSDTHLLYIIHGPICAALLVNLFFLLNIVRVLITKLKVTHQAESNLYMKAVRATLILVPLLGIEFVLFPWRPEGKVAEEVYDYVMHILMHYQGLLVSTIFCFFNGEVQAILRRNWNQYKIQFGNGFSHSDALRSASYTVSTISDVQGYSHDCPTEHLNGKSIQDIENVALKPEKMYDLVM
T1 sequence (Q9JHJ1 46-182 partner): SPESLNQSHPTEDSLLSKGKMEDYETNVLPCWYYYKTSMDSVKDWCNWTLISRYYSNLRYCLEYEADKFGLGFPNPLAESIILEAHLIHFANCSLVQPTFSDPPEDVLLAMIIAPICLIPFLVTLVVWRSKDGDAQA

As for `CNC(=O)[C@H](Cc1ccccc1)NC(=O)[C@H](CC(C)C)[C@H](CSc1cccs1)C(=O)NO` [BB-94, Batimastat], in the experiment on hypertensive SHR rats, the “drop in blood pressure” value is listed as “about 80 mm of Hg”, the “time after injection at which blood pressure dropped” value turned out to be 20 min and the “time blood pressure remained at the reduced level” value is “at least 2.5 hours”.

In the case of “AM(8-52): AM fragment generated by MMP-2 digestion; maintains intramolecular ring structure and α-amide; synthesized (FQGLRSFGCRFGTCTVQKLAHQIYQFTDKDKDNVAPRSKISPQGY-NH2; disulfide 9-14 (inferred); UniProt P35318 102-146, looked up, fragment)”, in experiment [1] (setting [3]), the “effect on blood pressure” value is recorded as “induced hypotension”. Moreover, in experiment [2], the “intracellular elevation of cAMP” value is “equal to the one induced by the intact AM molecule”.

“AM(11-22): peptide consisting of amino acids 11-22 of adrenomedullin (LRSFGCRFGTCT; PEPTIDE (1)..(12) Active peptide AM(11-22), corresponding to positions 11-22 of adrenomedullin (SEQ ID NO 3) and positions 105-116 of preproadrenomedullin (SEQ ID NO 2).; listed as Homo sapiens)”: the “vasopressor effect over basal levels” value in experiment [1] (anesthetized rats, injection into femoral vein, n=5) was determined as 71±24 mm Hg. Also, the duration of activity result in experiment [1] (vasoconstrictor activity in rats) is listed as “on the order of hours”. Further, the “effect on cAMP response elicited by intact AM (1-52)” value in experiment [2] (different (increasing) concentrations of peptide added with AM) is “did not affect the response”.

For “AM(11-26): AM fragment purified from bovine adrenal medulla (Kitamura et al.) (LRSFGCRFGTCTVQKL; ends and bridges not checked; cysteine pairing not given here; UniProt P35318 105-120, looked up, fragment)”, in the experiment with blood pressure, the “duration of elevation in blood pressure” value is on record as “about 70 seconds” and the vasopressor activity result was “induced vasopressor activity”.

For “AM(11-28): AM fragment generated by MMP-2 digestion; has the loop but not the carboxy end; synthesized (LRSFGCRFGTCTVQKLAH; disulfide 6-11 (inferred); UniProt P35318 105-122, looked up, fragment)”, the “effect on blood pressure” value in experiment [1] (setting [3]) was “do not have any discernible effect”.

Regarding “AM(11-52): AM fragment generated by MMP-2 digestion; maintains intramolecular ring structure and α-amide; synthesized (LRSFGCRFGTCTVQKLAHQIYQFTDKDKDNVAPRSKISPQGY-NH2; disulfide 6-11 (inferred); UniProt P35318 105-146, looked up, fragment)”, in experiment [1] (setting [3]), the “effect on blood pressure” value is “induced hypotension”. In experiment [2], the “intracellular elevation of cAMP” value is “equal to the one induced by the intact AM molecule”.

Turning to “AM(23-52): AM fragment generated by MMP-2 digestion; retains only the terminal amide; synthesized (VQKLAHQIYQFTDKDKDNVAPRSKISPQGY-NH2; UniProt P35318 117-146, looked up, fragment)”, in experiment [1] (setting [3]), the “effect on blood pressure” value is “do not have any discernible effect”.

Turning to “AM(29-52): AM fragment generated by MMP-2 digestion; retains only the terminal amide; synthesized (QIYQFTDKDKDNVAPRSKISPQGY-NH2; UniProt P35318 123-146, looked up, fragment)”, the “effect on blood pressure” value in experiment [1] (setting [3]) is recorded as “do not have any discernible effect”.

On to “AM-(1-21)-NH2: synthetic N-terminal AM fragment (Watanabe et al.) (YRQSMNNFQGLRSFGCRFGTC-NH2; ends and bridges not checked; UniProt P35318 95-115, looked up, fragment)”, for which the “vasoactivity (vasodepressor or vasopressor)” value (shortened to “vasoactivity”) in the experiment with anesthetized rats is on record as “vasopressor activity”.

“AM-(1-25)-NH2: synthetic N-terminal AM fragment (Watanabe et al.) (YRQSMNNFQGLRSFGCRFGTCTVQK-NH2; ends and bridges not checked; UniProt P35318 95-119, looked up, fragment)”: the “vasoactivity” value with anesthetized rats is on record as “vasodepressor activity”.

With “AM-(1-25)-OH: synthetic N-terminal AM fragment (Watanabe et al.) (YRQSMNNFQGLRSFGCRFGTCTVQK-OH; ends and bridges not checked; UniProt P35318 95-119, looked up, fragment)”, in the experiment with anesthetized rats, the “vasoactivity” value was “vasopressor activity”.

“AM-(1-31)-NH2: synthetic N-terminal AM fragment (Watanabe et al.) (YRQSMNNFQGLRSFGCRFGTCTVQKLAHQIY-NH2; ends and bridges not checked; UniProt P35318 95-125, looked up, fragment)”: in the experiment with anesthetized rats, the “vasoactivity” value is on record as “vasopressor activity”.

Regarding “acetyl-AM-(16-21)-NH2: synthetic N-terminal AM fragment (Watanabe et al.) (Ac-CRFGTC-NH2; ends and bridges not checked; UniProt P35318 110-115, looked up, fragment)”, the “vasoactivity” value in the experiment on anesthetized rats is on record as “vasopressor activity”.

For “acetyl-AM-(16-36)-NH2: synthetic N-terminal AM fragment (Watanabe et al.) (Ac-CRFGTCTVQKLAHQIYQFTDK-NH2; ends and bridges not checked; UniProt P35318 110-130, looked up, fragment)”, the “vasoactivity” value in the experiment with anesthetized rats was “vasopressor activity”.

Turning to adrenomedullin [AM], in experiment [1] (anesthetized rats, injection into femoral vein, n=5, untreated systolic 125±10 mm Hg), the “reduction of blood pressure (hypotension)” value is reported as 55±5 mm Hg. Also, the “degradation by MMP-9” value in the experiment with Human recombinant MMP-9 is recorded as “resistance”. Moreover, in experiment [2], the “intracellular elevation of cAMP” value was “significant elevation of cAMP”. For the same compound, the “degradation by MMP-2” value with Human recombinant MMP-2 is given as “rapidly cleaves”.

(Values after patent US7364719B2, “Vasoregulating compounds and methods of their use” (The United States of America as represented by the …, priority 2002, dated 2008).)
